# Test results taken from publication PMC9497675, “Explore the Interaction between Ellagic Acid and Zein Using Multi-Spectroscopy Analysis and Molecular Docking” (Foods, 2022).
# Molecular target: T1, zein
# T1 construct: gene alpha-zein
# Test: intrinsic fluorescence quenching (ex […] nm), modified Stern-Volmer double-log plot
# Assay type: binding, Zea mays
# Conditions: 298 K; 0.05 mg/mL zein in 70% aqueous ethanol; EA stock in 50% methanol; n = 1.2786; apparent constant
structure (smiles),measurement,value
"O=c1oc2c(O)c(O)cc3c(=O)oc4c(O)c(O)cc1c4c23 [EA, ellagic acid]",KA (L/mol),9.47 × 10^2
